Data published in the CheMixHub viscosity set.
± gives the uncertainty stated by the source.

Assay: xn = mol fraction of the nth substance listed

CCCCCCO + C1CCCCC1
Conditions | viscosity [mPa·s]
293.15 K, 100 kPa, x2 = 0.0817 | 4.68 ± 0.38
293.15 K, 100 kPa, x2 = 0.1603 | 4.1 ± 0.33
293.15 K, 100 kPa, x2 = 0.2421 | 3.55 ± 0.29
293.15 K, 100 kPa, x2 = 0.3502 | 2.91 ± 0.23
293.15 K, 100 kPa, x2 = 0.4409 | 2.45 ± 0.2
293.15 K, 100 kPa, x2 = 0.5593 | 1.94 ± 0.16
293.15 K, 100 kPa, x2 = 0.6517 | 1.64 ± 0.13
293.15 K, 100 kPa, x2 = 0.7396 | 1.4 ± 0.11
293.15 K, 100 kPa, x2 = 0.8512 | 1.18 ± 0.1
293.15 K, 100 kPa, x2 = 0.9402 | 1.05 ± 0.08
303 K, 101.33 kPa, x1 = 0.1 | 0.8842 ± 0.02
303 K, 101.33 kPa, x1 = 0.2008 | 1.003 ± 0.022
303 K, 101.33 kPa, x1 = 0.2997 | 1.155 ± 0.025
303 K, 101.33 kPa, x1 = 0.4002 | 1.329 ± 0.029
303 K, 101.33 kPa, x1 = 0.4994 | 1.58 ± 0.035
303 K, 101.33 kPa, x1 = 0.6004 | 1.919 ± 0.044
303 K, 101.33 kPa, x1 = 0.6986 | 2.266 ± 0.055
303 K, 101.33 kPa, x1 = 0.8004 | 2.705 ± 0.069
303 K, 101.33 kPa, x1 = 0.8991 | 3.173 ± 0.086
303.15 K, 100 kPa, x2 = 0.0817 | 3.47 ± 0.28
303.15 K, 100 kPa, x2 = 0.1603 | 3.06 ± 0.25
303.15 K, 100 kPa, x2 = 0.2421 | 2.68 ± 0.22
303.15 K, 100 kPa, x2 = 0.3502 | 2.23 ± 0.18
303.15 K, 100 kPa, x2 = 0.4409 | 1.91 ± 0.15
303.15 K, 100 kPa, x2 = 0.5593 | 1.56 ± 0.13
303.15 K, 100 kPa, x2 = 0.6517 | 1.34 ± 0.11
303.15 K, 100 kPa, x2 = 0.7396 | 1.14 ± 0.09
303.15 K, 100 kPa, x2 = 0.8512 | 0.96 ± 0.08
303.15 K, 100 kPa, x2 = 0.9402 | 0.86 ± 0.07
303.15 K, 101 kPa, x1 = 0.6491 | 1.907 ± 0.2
303.15 K, 101.33 kPa, x1 = 0.1085 | 0.9365 ± 0.012
303.15 K, 101.33 kPa, x1 = 0.2023 | 1.058 ± 0.013
303.15 K, 101.33 kPa, x1 = 0.3065 | 1.225 ± 0.015
303.15 K, 101.33 kPa, x1 = 0.3939 | 1.392 ± 0.017
303.15 K, 101.33 kPa, x1 = 0.5019 | 1.641 ± 0.019
303.15 K, 101.33 kPa, x1 = 0.6052 | 1.93 ± 0.023
303.15 K, 101.33 kPa, x1 = 0.701 | 2.255 ± 0.026
303.15 K, 101.33 kPa, x1 = 0.7991 | 2.649 ± 0.03
303.15 K, 101.33 kPa, x1 = 0.8894 | 3.088 ± 0.035
308.15 K, 101 kPa, x1 = 0.6491 | 1.701 ± 0.17
313 K, 101.33 kPa, x1 = 0.1 | 0.7554 ± 0.018
313 K, 101.33 kPa, x1 = 0.2008 | 0.8505 ± 0.019
313 K, 101.33 kPa, x1 = 0.2997 | 0.9723 ± 0.021
313 K, 101.33 kPa, x1 = 0.4002 | 1.115 ± 0.024
313 K, 101.33 kPa, x1 = 0.4994 | 1.302 ± 0.027
313 K, 101.33 kPa, x1 = 0.6004 | 1.526 ± 0.032
313 K, 101.33 kPa, x1 = 0.6986 | 1.781 ± 0.039
313 K, 101.33 kPa, x1 = 0.8004 | 2.083 ± 0.047
313 K, 101.33 kPa, x1 = 0.8991 | 2.417 ± 0.057
313.15 K, 100 kPa, x2 = 0.0817 | 2.61 ± 0.21
313.15 K, 100 kPa, x2 = 0.1603 | 2.33 ± 0.19
313.15 K, 100 kPa, x2 = 0.2421 | 2.04 ± 0.16
313.15 K, 100 kPa, x2 = 0.3502 | 1.72 ± 0.14
313.15 K, 100 kPa, x2 = 0.4409 | 1.49 ± 0.12
313.15 K, 100 kPa, x2 = 0.5593 | 1.24 ± 0.1
313.15 K, 100 kPa, x2 = 0.6517 | 1.08 ± 0.09
313.15 K, 100 kPa, x2 = 0.7396 | 0.93 ± 0.08
313.15 K, 100 kPa, x2 = 0.8512 | 0.79 ± 0.06
313.15 K, 100 kPa, x2 = 0.9402 | 0.72 ± 0.06
313.15 K, 101 kPa, x1 = 0.6491 | 1.63 ± 0.17
323 K, 101.33 kPa, x1 = 0.1 | 0.65 ± 0.016
323 K, 101.33 kPa, x1 = 0.2008 | 0.7271 ± 0.017
323 K, 101.33 kPa, x1 = 0.2997 | 0.8205 ± 0.018
323 K, 101.33 kPa, x1 = 0.4002 | 0.9237 ± 0.02
323 K, 101.33 kPa, x1 = 0.4994 | 1.061 ± 0.022
323 K, 101.33 kPa, x1 = 0.6004 | 1.239 ± 0.025
323 K, 101.33 kPa, x1 = 0.6986 | 1.433 ± 0.029
323 K, 101.33 kPa, x1 = 0.8004 | 1.658 ± 0.034
323 K, 101.33 kPa, x1 = 0.8991 | 1.896 ± 0.04
323.15 K, 100 kPa, x2 = 0.0817 | 2.02 ± 0.16
323.15 K, 100 kPa, x2 = 0.1603 | 1.8 ± 0.14
323.15 K, 100 kPa, x2 = 0.2421 | 1.6 ± 0.13
323.15 K, 100 kPa, x2 = 0.3502 | 1.36 ± 0.11
323.15 K, 100 kPa, x2 = 0.4409 | 1.19 ± 0.1
323.15 K, 100 kPa, x2 = 0.5593 | 1 ± 0.08
323.15 K, 100 kPa, x2 = 0.6517 | 0.87 ± 0.07
323.15 K, 100 kPa, x2 = 0.7396 | 0.77 ± 0.06
323.15 K, 100 kPa, x2 = 0.8512 | 0.67 ± 0.05
323.15 K, 100 kPa, x2 = 0.9402 | 0.61 ± 0.05

O=C1CCCCC1 + C1CCCCC1
Conditions | viscosity [mPa·s]
298.15 K, 101.3 kPa, x2 = 0.4895 | 1.275 ± 0.02
303.15 K, 101 kPa, x2 = 0.1065 | 1.596 ± 0.019
303.15 K, 101 kPa, x2 = 0.2078 | 1.451 ± 0.017
303.15 K, 101 kPa, x2 = 0.3013 | 1.32 ± 0.015
303.15 K, 101 kPa, x2 = 0.3971 | 1.214 ± 0.014
303.15 K, 101 kPa, x2 = 0.5022 | 1.102 ± 0.013
303.15 K, 101 kPa, x2 = 0.604 | 1.027 ± 0.012
303.15 K, 101 kPa, x2 = 0.7024 | 0.9614 ± 0.011
303.15 K, 101 kPa, x2 = 0.8086 | 0.8788 ± 0.01
303.15 K, 101 kPa, x2 = 0.8742 | 0.8504 ± 0.01
303.15 K, 101 kPa, x2 = 0.9034 | 0.8387 ± 0.0099

CC(C)CC(C)(C)C + C1COCCO1
viscosity [mPa·s], 101 kPa
Conditions | x2 = 0.1085 | x2 = 0.2061 | x2 = 0.2943 | x2 = 0.3746 | x2 = 0.515 | x2 = 0.6337 | x2 = 0.6865 | x2 = 0.8237 | x2 = 0.9008
293.15 K | 0.5237 ± 0.0039 | 0.5426 ± 0.0041 | 0.5664 ± 0.0043 | 0.5961 ± 0.0045 | 0.6613 ± 0.005 | 0.7446 ± 0.0057 | 0.7922 ± 0.0061 | 0.9589 ± 0.0074 | 1.083 ± 0.0084
298.15 K | 0.4947 ± 0.0037 | 0.5119 ± 0.0039 | 0.5334 ± 0.0041 | 0.561 ± 0.0043 | 0.6252 ± 0.0048 | 0.6968 ± 0.0054 | 0.7388 ± 0.0057 | 0.885 ± 0.0069 | 0.9979 ± 0.0078
303.15 K | 0.4683 ± 0.0036 | 0.4835 ± 0.0037 | 0.5036 ± 0.0039 | 0.5289 ± 0.0041 | 0.5825 ± 0.0045 | 0.6529 ± 0.0051 | 0.6909 ± 0.0054 | 0.8248 ± 0.0065 | 0.9282 ± 0.0073
308.15 K | 0.4438 ± 0.0034 | 0.4578 ± 0.0035 | 0.4761 ± 0.0037 | 0.4992 ± 0.0039 | 0.5485 ± 0.0043 | 0.6141 ± 0.0048 | 0.6485 ± 0.0051 | 0.7634 ± 0.006 | 0.857 ± 0.0068
313.15 K | 0.4211 ± 0.0033 | 0.4352 ± 0.0034 | 0.4507 ± 0.0035 | 0.4727 ± 0.0037 | 0.5181 ± 0.0041 | 0.5788 ± 0.0046 | 0.6082 ± 0.0048 | 0.7242 ± 0.0057 | 0.7993 ± 0.0064

O=C1CCCCC1 + C1COCCO1
viscosity [mPa·s], 101 kPa
Conditions | x1 = 0.099 | x1 = 0.2022 | x1 = 0.31 | x1 = 0.4227 | x1 = 0.5406 | x1 = 0.6641 | x1 = 0.728 | x1 = 0.8607 | x1 = 0.9295
293.15 K | 1.323 ± 0.01 | 1.352 ± 0.011 | 1.396 ± 0.011 | 1.463 ± 0.011 | 1.56 ± 0.012 | 1.694 ± 0.013 | 1.782 ± 0.014 | 2.003 ± 0.015 | 2.148 ± 0.017
298.15 K | 1.214 ± 0.0096 | 1.239 ± 0.0098 | 1.281 ± 0.01 | 1.341 ± 0.01 | 1.429 ± 0.011 | 1.544 ± 0.012 | 1.626 ± 0.013 | 1.816 ± 0.014 | 1.941 ± 0.015
303.15 K | 1.12 ± 0.0089 | 1.142 ± 0.0091 | 1.184 ± 0.0094 | 1.235 ± 0.0097 | 1.324 ± 0.01 | 1.417 ± 0.011 | 1.489 ± 0.012 | 1.657 ± 0.013 | 1.769 ± 0.014
308.15 K | 1.036 ± 0.0083 | 1.06 ± 0.0085 | 1.094 ± 0.0087 | 1.145 ± 0.0091 | 1.224 ± 0.0097 | 1.315 ± 0.01 | 1.373 ± 0.011 | 1.513 ± 0.012 | 1.618 ± 0.013
313.15 K | 0.9598 ± 0.0077 | 0.9803 ± 0.0079 | 1.017 ± 0.0081 | 1.063 ± 0.0085 | 1.143 ± 0.0091 | 1.212 ± 0.0096 | 1.263 ± 0.0099 | 1.39 ± 0.011 | 1.497 ± 0.012

CCOCC + C=C(C)C(=O)OC
298.15 K, 101.3 kPa
Conditions | viscosity [mPa·s]
x2 = 0.0454 | 0.249 ± 0.003
x2 = 0.1483 | 0.281 ± 0.003
x2 = 0.249 | 0.314 ± 0.003
x2 = 0.3495 | 0.349 ± 0.003
x2 = 0.4486 | 0.385 ± 0.003
x2 = 0.4908 | 0.4 ± 0.004
x2 = 0.5479 | 0.421 ± 0.004
x2 = 0.6504 | 0.459 ± 0.004
x2 = 0.7501 | 0.496 ± 0.004
x2 = 0.8488 | 0.532 ± 0.004
x2 = 0.947 | 0.567 ± 0.004

C=C(C)[C@@H]1CC=C(C)CC1 + C=CC(C)(O)CCC=C(C)C
viscosity [mPa·s], 101.33 kPa
Conditions | x1 = 0.0422 | x1 = 0.1332 | x1 = 0.2273 | x1 = 0.3523 | x1 = 0.4816 | x1 = 0.562 | x1 = 0.6389 | x1 = 0.7679 | x1 = 0.8478 | x1 = 0.9236
298.15 K | 4.062 ± 0.032 | 3.237 ± 0.026 | 2.695 ± 0.021 | 2.072 ± 0.016 | 1.626 ± 0.013 | 1.429 ± 0.011 | 1.282 ± 0.01 | 1.101 ± 0.009 | 1.013 ± 0.008 | 0.933 ± 0.008
313.15 K | 2.37 ± 0.019 | 2.025 ± 0.016 | 1.731 ± 0.014 | 1.427 ± 0.012 | 1.196 ± 0.01 | 1.086 ± 0.009 | 0.998 ± 0.008 | 0.877 ± 0.007 | 0.814 ± 0.007 | 0.755 ± 0.006
